Where two headings read alike, the source gives them in different places.
Experiments:
OCT-1 [1] = target: T1, OCT-1 (Homo sapiens, UniProt O15245); assay: OCT-1 activity; assay type: cell-based; details: KU812
T1 sequence (O15245 1-554): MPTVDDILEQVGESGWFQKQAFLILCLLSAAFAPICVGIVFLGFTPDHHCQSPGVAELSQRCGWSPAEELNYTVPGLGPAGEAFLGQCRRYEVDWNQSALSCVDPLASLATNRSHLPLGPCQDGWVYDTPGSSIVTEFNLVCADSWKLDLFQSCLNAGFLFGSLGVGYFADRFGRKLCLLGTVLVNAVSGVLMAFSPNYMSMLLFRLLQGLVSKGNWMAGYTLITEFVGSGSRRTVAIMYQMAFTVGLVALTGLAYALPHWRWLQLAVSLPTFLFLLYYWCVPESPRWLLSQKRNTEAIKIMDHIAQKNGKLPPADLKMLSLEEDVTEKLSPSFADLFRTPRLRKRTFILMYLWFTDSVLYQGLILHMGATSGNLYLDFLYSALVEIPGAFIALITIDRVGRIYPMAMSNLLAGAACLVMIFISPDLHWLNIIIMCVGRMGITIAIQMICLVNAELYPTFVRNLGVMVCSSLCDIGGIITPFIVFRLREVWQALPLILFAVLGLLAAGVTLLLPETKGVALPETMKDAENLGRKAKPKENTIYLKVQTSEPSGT

OCT-1 [2] = target: T1, OCT-1; assay: OCT-1 activity; assay type: cell-based; details: K562; for change in OA / imatinib uptake via OCT-1: NSAID at concentration of Supplementary Table 1, 2 h
K562 cells = assay: Trypan blue exclusion assay, viable cell number, K562; assay type: cell-based, human; details: for number of viable cells: 72 hours
OCT-1 [3] = target: T1, OCT-1; assay: OCT-1 activity; assay type: cell-based
OCT-1 mRNA [4] = assay: RQ-PCR for OCT-1 mRNA levels, KU812; assay type: cell-based, human; details: 2-hour incubation (data not shown)
OCT-1 mRNA [5] = assay: RQ-PCR for OCT-1 mRNA levels, K562; assay type: cell-based, human; details: 2-hour incubation (data not shown)
OCT-1 [6] = target: T1, OCT-1; assay: OCT-1 activity; assay type: cell-based; details: MNCs from normal individuals
hOCT-1 = details: 0.5 mM NSAID; transfected S2 cells expressing hOCT-1; ref Khamdang et al, 2002; cited from earlier work
[7] = ref Siu et al, 2000; Juhlin et al, 2004; Bramlage and Goldis, 2008; cited from earlier work
KU812 cells = assay: Trypan blue exclusion assay, viable cell number, KU812; assay type: cell-based, human; details: for number of viable cells: 72 hours
[8] = test system: chronic myeloid leukaemia; details: 7-year update of IRIS; ref Hughes et al, 2010; cited from earlier work
[9] = test system: chronic myeloid leukaemia; details: imatinib 600 mg per day, ref White et al, 2007b, cited from earlier work

Cc1ccc(-c2cc(C(F)(F)F)nn2-c2ccc(S(N)(=O)=O)cc2)cc1 [celecoxib]
change in imatinib uptake via OCT-1 (OCT-1 [1]): no significant impact | change in OA / imatinib uptake via OCT-1 (OCT-1 [2]): no significant impact

O=C(O)Cc1ccccc1Nc1c(Cl)cccc1Cl [diclofenac]
number of viable cells (K562 cells; 10 μM diclofenac + […] imatinib): 7.82±0.56 × 10^5 ml^−1 | change in cell viability (K562 cells; diclofenac alone, no imatinib): no significant change | cases moved from Q1 to a higher OA quartile group (OCT-1 [3]; 15 of 29 Q1 cases, 10 μM diclofenac): 51.7% | percentage of Q1 patients' samples in which OA was increased (OCT-1 [3]; CML MNCs with basal OA <4 ng per 200 000 cells (Q1), n=29, 10 μM diclofenac): 93% | median OA in the presence of diclofenac (OCT-1 [3]; patients with basal OA >4 ng per 200 000 cells, n=21, 10 μM diclofenac, 5.49 without, not significant (P=0.714)): 5.92 ng per 200 000cells | change in level of OCT-1 mRNA (OCT-1 mRNA [4]): no significant change | change in level of OCT-1 mRNA (OCT-1 mRNA [5]): no significant change | change in OA (OCT-1 [6]; n=10, diclofenac (data not shown)): did not result in a significant change | effect on OCT-1-mediated TEA uptake (hOCT-1): significantly inhibit | clinically achievable total plasma concentration [7]: 10 µM | number of viable cells (KU812 cells; 10 μM diclofenac + 0.05 μM imatinib): 5.40±0.34 × 10^5 ml^−1 | change in cell viability (KU812 cells; diclofenac alone, no imatinib): no significant change

CC(C)Cc1ccc(C(C)C(=O)O)cc1 (centres unmarked) [ibuprofen]
number of viable cells (K562 cells; 145 μM ibuprofen + 0.5 μM imatinib): 8.16±1.01 × 10^5 ml^−1 | reduction in OA (OCT-1 [3]; CP-CML MNCs, 12 cases, 145 μM ibuprofen): 41% | range of OA after treatment (OCT-1 [3]; CP-CML MNCs, n=12, 145 μM ibuprofen): 1.53–7.85 ng per 200 000 cells | average OA after treatment (OCT-1 [3]; CP-CML MNCs, n=12, 145 μM ibuprofen, 7.53±0.82 before): 4.30±0.52 ng per 200 000 cells | change in level of OCT-1 mRNA (OCT-1 mRNA [4]): no significant change | change in level of OCT-1 mRNA (OCT-1 mRNA [5]): no significant change | OA, % of vehicle control (OCT-1 [1]; 145 μM ibuprofen, 2 h): 59% | decrease in OA (OCT-1 [6]; n=6, ibuprofen): 50% | range of OA post treatment (OCT-1 [6]; n=6, ibuprofen): 1.41–2.82 ng per 200 000 cells | OA post treatment (OCT-1 [6]; n=6, ibuprofen, 3.70±0.45 before): 1.83±0.26 ng per 200 000 cells | OA, % of vehicle control (OCT-1 [2]; 145 μM ibuprofen, 2 h): 48% | effect on OCT-1-mediated TEA uptake (hOCT-1): significantly inhibit | number of viable cells (KU812 cells; 145 μM ibuprofen + 0.1 μM imatinib): 7.23±0.78 × 10^5 ml^−1

Cc1ccc(NC(=O)c2ccc(CN3CCN(C)CC3)cc2)cc1Nc1nccc(-c2cccnc2)n1 [imatinib]
overall event-free survival [8]: 81% | transformation-free survival (to accelerated phase/blast crisis) [8]: 93% | percentage of patients achieving major molecular response (MMR) by 24 months ([9]; patients with high OA): 85% | percentage of patients achieving major molecular response (MMR) by 24 months ([9]; patients with low OA): 45% | number of viable cells (K562 cells; 0.5 μM imatinib alone): 4.88±0.96 × 10^5 ml^−1 | number of viable cells (KU812 cells; 0.05 μM imatinib alone): 8.40±0.74 × 10^5 ml^−1 | number of viable cells (KU812 cells; 0.1 μM imatinib alone): 4.97±0.47 × 10^5 ml^−1

COc1ccc2c(c1)c(CC(=O)O)c(C)n2C(=O)c1ccc(Cl)cc1 [indomethacin]
effect on OCT-1-mediated TEA uptake (hOCT-1): significantly inhibit

CS(=O)(=O)c1ccc(C2=C(c3ccccc3)C(=O)OC2)cc1 [rofecoxib]
change in imatinib uptake via OCT-1 (OCT-1 [1]): no significant impact | change in OA / imatinib uptake via OCT-1 (OCT-1 [2]): no significant impact

CC1=C(CC(=O)O)c2cc(F)ccc2/C1=C\c1ccc([S+](C)[O-])cc1 (centres unmarked) [sulindac]
effect on OCT-1-mediated TEA uptake (hOCT-1): significantly inhibit

Reference: article PMC3364120 (British Journal of Cancer, 2012)
